Assay results: patent US6376211B1, “Agents and methods for inhibiting F1/F0 ATPase” (XOMA Technology Ltd., priority 1999, dated 2002)

What was measured:
E. coli O111:B4 [1] = assay: In vitro bactericidal activity; format: cell-based
E. coli = assay: Metabolic oxidation-reduction indicator dye Alamar Blue assay; format: cell-based
Description: (§1) The effect of antibacterial BPI protein products on the activity of bacterial ATP synthase as measured by a metabolic oxidation-reduction indicator dye and a membrane potential indicator dye was determined as described in Example 2 of U.S. Provisional Application Ser. No. 60/143,290 filed Jul. 12, 1999 and corresponding co-owned, concurrently filed U.S. application Ser. No. 09/543,955, both of which are incorporated herein by reference and Example 9 of U.S. Provisional Application Ser. No. 60/143,485 filed Jul. 12, 1999 and corresponding U.S. application Ser. No. 09/404,926 filed Sep. 24, 1999 and International Application No. PCT/US99/22361 filed Sep. 24, 1999, all of which are incorporated herein by reference.

E. coli O111:B4 [2] = assay: Membrane potential indicator dye DiOC6(3) assay; format: cell-based
Description: as §1

whole cells [3] = assay: Membrane potential indicator dye assay of whole cells (general description); format: cell-based; conditions: retention of the dye notwithstanding onset of loss of viability at the same concentration
From the text: (§2) The effect of test compounds on ATP synthase activity of whole cells can also optionally be assayed using any membrane potential indicator dye or metabolic oxidation-reduction indicator dye known in the art. See Loew, Chapter 8 in Biomembrane Electrochemistry, Blank and Vodyanoy, eds., American Chemical Society, Washington, DC (1994), pages 151-173. Particularly preferred dyes are membrane potential dyes such as DiOC6(3), JC-1, rhodamine 123, or MitoTracker® reduced dyes [Molecular Probes, Eugene, Oreg.]. […] Other preferred dyes are metabolic oxidation-reduction indicator dyes such as Alamar Blue™ [AccuMed Int'l, Westlake, Ohio]. […] See U.S. Provisional Application Ser. No. 60/143,290 filed Jul. 12, 1999 and corresponding co-owned, concurrently filed U.S. application Ser. No. 09/543,955, both of which are incorporated herein by reference and U.S. Provisional Application Ser. No. 60/143,485 filed Jul. 12, 1999 and corresponding U.S. application Ser. No. 09/404,926 filed Sep. 24, 1999 and International Application No. PCT/US99/22361 filed Sep. 24, 1999, all of which are incorporated herein by reference. Iterative screening for compound selection may employ one or combination of assays for testing.

whole cells [4] = assay: Metabolic oxidation-reduction indicator dye (Alamar Blue) assay of whole cells (general description); format: cell-based; conditions: at a less than fully cytotoxic concentration
From the text: as §2

[5] = biological target: T1, mammalian mitochondrial ATP synthase; assay: Phosphatase activity of ATP synthase in mitochondrial membrane preparations (mouse liver); format: biochemical; conditions: 1.35 μM rBPI21, 0.082 and 0.482 μM XMP.391, 0.076 and 0.553 μM XMP.416
T1 construct: ATP synthase enzymic activity in mitochondrial preparations; from tissue; host or cells: mouse liver mitochondria, deoxycholate-lysed membrane pellet
Description: The effect of BPI protein products on ATP synthase enzymic activity in mitochondrial preparations was evaluated. Mitochondrial membrane preparations were prepared as follows. Male laboratory mice (Mus musculus) were sacrificed by cervical dislocation and their livers were immediately excised. The gall bladder and connective tissues were removed and the livers were washed in 0.25 M sucrose. Wet liver weight was determined after blotting the washed liver on absorbent paper. All subsequent steps of the fractionation procedure were performed on ice. The weighted livers were then homogenized with a Potter Elvehjem tissue homogenizer and six passes of a teflon pestle in 9 volumes of 0.25 M sucrose with protease inhibitors (2 μg/mL pepstatin A, 2 μg/mL aprotinin and 1 mM phenylmethylsulfonyl fluoride (PMSF). Liver homogenates were then centrifuged in a Beckman (Fullerton, Calif.) J2-21 centrifuge for 10 minutes at 600×g. The 600×g pellet (nuclei, unbroken cells and connective tissue) was discarded and the supernatant was subjected to further centrifugation. The 600×g supernatant was centrifuged at 7000×g for 10 minutes to yield a crude mitochondrial pellet.
Crude mitochondria were resuspended in 3 volumes of the original liver weight with 0.25 M sucrose and centrifuged at 7000×g for 10 minutes. The supernatant was discarded and the procedure was repeated. […]

E. coli ATP synthase = conditions: bacterial membrane preparations; about ... and higher
Description: The effect of antibacterial BPI protein products on the ATP synthesis activity of an E. coli ATP synthase was determined as follows. Bacterial membranes were prepared as follows. A 400 mL culture of E. coli was grown overnight in TSB at 37° C. with shaking. Cells were harvested by centrifugation for 10 minutes at 1000×g, followed by washing with 20 mL of PBS and recentrifugation. Cells were resuspended in 4 ml of 25 mM HEPES, pH 7.6, 0.1 M KCl, 0.1 M EDTA, 12.5 mM MgCl2, 10% glycerol, 0.1% NP40. Then 50 μl of lysozyme (50 mg/ml) was added and the cells were incubated for 30 minutes on ice. Cells were disrupted by sonication in 3×30-second pulses. Cells were placed on ice between pulses. DNAse I was added to a 10 μg/mL final concentration (GIBCO Life Technologies, Gaithersburg, Md.) and the homogenate was left on ice for 30 minutes. […] The final pellet was resuspended in 2 mL 10 mM Tris-HC1, pH 7.0, 0.1 mM EDTA, 20% glycerol and protein concentration was determined by standard Bradford assay.
In a 96 well plate (Microlite 1, DYNEX Technologies, Chantilly Va.), 25 μg bacterial membranes were diluted into 100 μl of 55.5 mM Tris-HC1, pH 7.8, 0.222 mM MgSO4 plus the compound to be tested (XMP.391 (SEQ ID NO: 4) and rBPI21 at concentrations ranging from 40 μg/mL to 0.625 μg/mL). […] Assays were read in Endpoint mode with 30 reads per well.

bacterial growth = conditions: cited from earlier work

Substance	in vitro bactericidal activity (E. coli O111:B4 [1])	apparent metabolic activity relative to untreated controls (E. coli)	accumulation and retention of membrane potential dye (E. coli O111:B4 [2])	pattern of accumulation of membrane potential dye in cells (whole cells [3])	pattern of metabolic oxidation-reduction activity relative to control cells (whole cells [4])	inhibition of phosphatase activity of ATP synthase [5]	concentration at which synthesis of ATP from ADP is inhibited in a dose-dependent manner (E. coli ATP synthase) [µg/mL]	concentration required to produce a therapeutic effect (bacterial growth) [µg/mL]
XMP.365: BPI-derived peptide, SEQ ID NO: 3; structure described in U.S. Pat. No. 5,858,974 (KWLIQLFHKK)	has in vitro bactericidal activity against this strain	apparent increased metabolic activity	produced an accumulation and retention of the dye despite cell death	accumulation in cells of membrane potential dye in a peptide concentration-dependent manner	increased metabolic oxidation-reduction activity relative to control cells	–	–	–
XMP.391: BPI-derived peptide, SEQ ID NO: 4 (KVGWLIQLFHKK)	–	apparent increased metabolic activity	–	–	increased metabolic oxidation-reduction activity relative to control cells	inhibited the phosphatase activity	≥ 1	–
XMP.416: BPI-derived peptide, SEQ ID NO: 5 (KWLIQLFHKK)	–	–	–	–	increased metabolic oxidation-reduction activity relative to control cells	inhibited the phosphatase activity	–	–
gentamicin	–	–	–	–	–	–	–	8
